Reference: paper PMC12298391, “Novel Lung Cell-Penetrating Peptide Targets Alveolar Epithelial Type II Cells, Basal Cells, and Ionocytes” (Pharmaceutics, 2025)
Where a SMILES comes first, the peptide text is derived from it. The star is where a group is joined. X1 = CN1C(=CC=CC=CC2=[N+](CCCCCC(=O)*)c3ccc4ccccc4c3C2(C)C)C(C)(C)c2c1ccc1ccccc21

Key:
[1] = Serum stability in fetal bovine serum, mass spectrometry; type: in vitro ADME; conditions: 10 µg/mL, 37 °C/5% CO2, 0-360 min, acetonitrile precipitation, C-peptide internal standard, LC-MS full scan peak area, triplicate
Description: At the end of each incubation time point, the tubes were removed and placed on ice; 25 µL of 1 µM C-peptide as an internal standard was added to the tube and vigorously vortexed for 15 s, followed by the addition of 500 μL of acetonitrile to each tube, vortexing for 30 secs, and centrifugation at maximum speed in a tabletop centrifuge for 5 min at 4 °C. The clear supernatant was transferred to a new tube and analyzed using mass spectrophotometry. A full MS scan was performed from 600.0 to 725.0 m/z (mass/charge) without fragmentations in positive polarity at a resolution of 70,000 (the range option is 17,500–140,000). The maximum injection time was 200 msec. The gas flow rates in arbitrary units were as follows: 48 for sheath, 11 for auxiliary, and 3 for sweep. The spray voltage was 4.00 kV, with a spray current of 5.90µA, a capillary temperature of 320 °C, and an auxiliary gas temperature of 250 °C with the S-lens Radio Frequency (RF) set to 50 (arbitrary units from 0 to 100). […] Intensities were quantified as the peak area containing all ion species within the specified m/+2 range. Then, 20 µL of the sample was injected onto an Eclipse Plus C18 column (1.8 um; 2.1 × 50 mm) at 45 °C at a rate of 0.3 mL/min and eluted with a gradient of acetonitrile (in 0.1% formic acid) using water in 0.1% formic acid as the aqueous phase. […]

[2] = tested on: Human bronchial epithelial cells; assay: Confocal microscopy of peptide uptake by HBECs; type: cell-based; conditions: 10 μM Cy5.5 peptide, 2, 10 and 30 min, 37 °C
Description: Identification and biodistribution of lung-targeting peptides: Eleven “alanine mutant” versions of CTP were synthesized along with the 6 N-terminus CTP-A (APWHLS) and 6 C-terminus CTP-B (SQYSRT), along with CTP peptide as a standard comparison. H9C2 cells, a rat cardiomyoblast cell line, were incubated with 10 μM of the fluorescent peptides, and FACS was performed (Figure 1A). H9C2 cells were chosen because initial phage display studies that led to the identification of CTP were conducted in this cell line, and we had prior evidence of successful transduction of these cells with CTP, which we used as a reference for comparing the alanine mutants. […]. These were injected intravenously in wild-type CD1 mice at a dose of 10 mg/kg. Counter to our expectations, uptake in the heart was negligible. […]; Supplementary Figure S1). […]
Supplemental Figure S2: Human bronchial epithelial cells transduce robustly with LTPs.
Human bronchial epithelial cells were plated on cover slips and treated with 10μM of linear
3x with pre-warmed PBS, fixed, counterstained with DAPI and confocal microscopy
have a cytoplasmic, peri-nuclear localization. Random peptide has very little to no uptake.
(1 picture or pasted object on this page, not shown here)

[3] = tested on: human Cystic Fibrosis bronchial epithelial cells (CFBE41o-); assay: Transferrin uptake assay, colocalization with endocytosed Alexa-488 transferrin; type: cell-based; conditions: confocal; for Uptake by CFBE41o- cells over time: 4 °C, then 5 and 30 min at 37 °C; for Co-localization with endocytosed Alexa-488 transferrin: serum-starved cells, Cy5.5 peptides
Description: Endocytosis studies: In order to investigate the mechanism of cell entry, human bronchial epithelial cells (HBECs) were serum-starved overnight and subsequently treated with specific endocytic pathway inhibitors. […] At the end of the incubation period, the cells were washed, trypsinized, harvested, and fixed with 2% PFA for 10 min at room temperature (RT), followed by a single wash and resuspension in PBS, and they were subjected to FACS analysis. […] The cells were washed with cold PBS, incubated with Alexa-488-labeled transferrin on ice in a cold room, and incubated for an hour. At the end of incubation, Cy5.5-labeled random, linear or cyclic LTPs were added and transferred to 37 °C, and after each time point, the cells were washed and fixed in 4% PFA. The cells were stained with Hoechst and mounted for confocal imaging.
Figure 5 Cystic Fibrosis bronchial epithelial cells (CFBE41o-) uptake S7A and R11A without colocalization with endocytosed transferrin. CFBE41o- cells were serum-starved, followed by incubation with transferrin-488, or Cy5.5-labeled linear or cyclic Random, S7A, or R11A, followed by fixation at indicated time points, and confocal microscopy performed. […] (A). Linear peptide colocalization. (B). Cyclic peptide colocalization. (C). Quantification of relative fluorescence of cyclic peptides. ** p < 0.01, *** p < 0.001.

[4] = tested on: lung cell types of wild-type mice; assay: Confocal microscopy of lung sections of injected mice cross-stained with cell markers; type: in vivo, mouse; conditions: 10 mg/kg i.v., 15 min, N = 3
Description: Animal studies: All animal protocols were approved by the University of Pittsburgh and the Mayo Clinic’s Institutional Animal Care and Use Committee. Wild-type, 6-week-old, CD1 (Charles Rivers, Wilmington, MA, USA; Cat #022) mice were weighed and anesthetized with an intraperitoneal injection of a 1:1 cocktail of Ketamine–Xylazine at 1–2 μL/gm body weight, followed by intravenous injection with Cy5.5-labeled peptides that were allowed to circulate for various time points. At the end of the circulation times, the mice were euthanized using inhalational CO2, their chest cavity was opened, their right atrium nicked and 3–5 mL of 10% formalin was injected through the left ventricular apex to perfusion-fix the animals. Various organs were harvested, rinsed once in PBS and imaged using an In Vivo Imaging System (IVIS; PerkinElmer Inc., Waltham, MA, USA) with identical instrument settings (stage position, exposure time, binning, F-stop, etc.). The organs were placed in 10% formalin at RT for 4 h, transferred to 15% sucrose at 4 °C overnight, followed by 30% sucrose at 4 °C overnight, before being embedded and cryo-sectioned at 6 μM thickness. […]

[5] = mouse, in vivo, iv, 5 mg/kg
Description: (§1) Wild-type, 6-week-old, CD1 (Charles Rivers, Wilmington, MA, USA; Cat #022) mice were weighed and anesthetized with an intraperitoneal injection of a 1:1 cocktail of Ketamine–Xylazine at 1–2 μL/gm body weight, followed by intravenous injection with Cy5.5-labeled peptides that were allowed to circulate for various time points. At the end of the circulation times, the mice were euthanized using inhalational CO2, their chest cavity was opened, their right atrium nicked and 3–5 mL of 10% formalin was injected through the left ventricular apex to perfusion-fix the animals. Various organs were harvested, rinsed once in PBS and imaged using an In Vivo Imaging System (IVIS; PerkinElmer Inc., Waltham, MA, USA) with identical instrument settings (stage position, exposure time, binning, F-stop, etc.). The organs were placed in 10% formalin at RT for 4 h, transferred to 15% sucrose at 4 °C overnight, followed by 30% sucrose at 4 °C overnight, before being embedded and cryo-sectioned at 6 μM thickness. The sections were cross-stained with various primary antibodies for ATII cells (ABCA3), basal cells (p63, KRT5), ionocytes (FOXI1), goblet cells (MUC5AC), ATI cells (HOPX), ciliated cells (acetylated tubulin), club cells (Uteroglobin), pulmonary endothelial cells (CD31), and airway smooth muscle cells (α-SMA) overnight at 4 °C. The sections were washed and incubated with Alexa-Fluor-488-conjugated secondary antibody at RT for 1 h. Additionally, kidney sections were stained with Lotus tetragonolobus Lectin-FITC (LTL-FITC) at RT for 1 h. All sections were then washed and mounted with DAPI, and confocal microscopy was performed. All peptides and time points were tested in triplicate (N = 3).

wild-type CD1 mice = conditions: 15 min, N = 3; for Uptake in the heart: confocal
Description: as §1

[6] = tested on: SARS-CoV-2 (strain USA_WA1/2020); assay: microbe, parasite or virus in culture; type: cell-based; conditions: Severe acute respiratory syndrome coronavirus 2; HBEC inserts, air-liquid interface; treatment apical and basolateral 24 h prior to infection; MOI ~0.0015 CCID50 per cell; virus collected after 5 days, titrated on Vero 76; triplicate; read-out: EC90 (inhibition of viral replication)

Molecule | Serum stability [1] | Uptake by HBECs (confocal) [2] | Uptake by CFBE41o- cells over time [3] | Co-localization with endocytosed Alexa-488 transferrin [3] | Uptake in AT2 and p63+ cells (confocal) compared with cR11A [4] | Uptake in ionocytes, AT-1, club, ciliated, goblet, endothelial and smooth muscle cells (confocal) [4] | tissue to tissue ratio at 0.25 h [5] | Lung uptake at lowest dose (wild-type CD1 mice; 1 mg/kg i.v., ex vivo IVIS) | Uptake in the heart (wild-type CD1 mice; 10 mg/kg i.v., CD1 mice) | EC90 [6] [nM] | Lung uptake (wild-type CD1 mice; 10 mg/kg i.v., CD1 mice, confocal/IVIS)
CC(C)C[C@H](NC(=O)[C@H](Cc1c[nH]cn1)NC(=O)[C@H](Cc1c[nH]c2ccccc12)NC(=O)[C@@H]1CCCN1C(=O)[C@H](C)NC(=O)CCCCC[N+]1=C(C=CC=CC=C2N(C)c3ccc4ccccc4c3C2(C)C)C(C)(C)c2c1ccc1ccccc21)C(=O)N[C@@H](CO)C(=O)N[C@@H](CO)C(=O)N[C@@H](CCC(N)=O)C(=O)N[C@@H](Cc1ccc(O)cc1)C(=O)N[C@@H](CO)C(=O)N[C@@H](C)C(=O)N[C@H](C(N)=O)[C@@H](C)O [R11A] | susceptibility to immediate degradation upon exposure to serum | taken up at 10 min with uptake increasing at 30 min | increasing uptake at 5 and 30 min | did not show co-localization | much lesser amounts | no uptake | 8 | robust lung uptake | negligible | – | –
CCC(CC)COC(=O)[C@H](C)N[P@](=O)(OC[C@H]1O[C@@](C#N)(c2ccc3c(N)ncnn23)[C@H](O)[C@@H]1O)Oc1ccccc1 [Remdesivir] | – | – | – | – | – | – | – | – | – | 19 | –
CC(C)C[C@H](NC(=O)[C@H](Cc1c[nH]cn1)NC(=O)[C@H](Cc1c[nH]c2ccccc12)NC(=O)[C@@H]1CCCN1C(=O)[C@H](C)NC(=O)CCCCC[N+]1=C(C=CC=CC=C2N(C)c3ccc4ccccc4c3C2(C)C)C(C)(C)c2c1ccc1ccccc21)C(=O)N[C@@H](CO)C(=O)N[C@@H](C)C(=O)N[C@@H](CCC(N)=O)C(=O)N[C@@H](Cc1ccc(O)cc1)C(=O)N[C@@H](CO)C(=O)N[C@@H](CCCNC(=N)N)C(=O)N[C@H](C(N)=O)[C@@H](C)O [S7A] (X1-APWHLSAQYSRT-NH2; C-terminus assumed) | – | taken up at 10 min with uptake increasing at 30 min | increasing uptake at 5 and 30 min | did not show co-localization | – | – | ~2.5 | – | negligible | – | robust lung uptake
TALACYPHTVGQ [RAN, scrambled, random peptide […] used as control, reference compound] | – | no uptake | – | – | – | – | – | – | – | – | –
